Source: patent US20080032998A1, “Pyrazolopyrimidines, a process for their preparation and their use as medicine” (MERZ PHARMA GMBH & CO. KGAA, priority 2006, published 2008)

Tests used:
[1] = target: T1, metabotropic glutamate receptor (mGluR5) (Homo sapiens, UniProt P41594); assay: Activity as mGluR5 modulator (prior-art compounds, method not given)
[2] = target: T2, mGluR5 receptors (Rattus norvegicus, UniProt P31424); assay: Cytosolic calcium studies with astrocytes (astrocyte culture test, FLIPR); format: cell-based; conditions: rat primary astrocytes, L-quisqualate 100 nM; read-out: mGluR5_FLIPR_r_rpA IC50
T2 construct: endogenous in cells; host or cells: primary astrocytes from neocortex of Sprague-Dawley rat pups
T2 sequence (P31424 21-1203): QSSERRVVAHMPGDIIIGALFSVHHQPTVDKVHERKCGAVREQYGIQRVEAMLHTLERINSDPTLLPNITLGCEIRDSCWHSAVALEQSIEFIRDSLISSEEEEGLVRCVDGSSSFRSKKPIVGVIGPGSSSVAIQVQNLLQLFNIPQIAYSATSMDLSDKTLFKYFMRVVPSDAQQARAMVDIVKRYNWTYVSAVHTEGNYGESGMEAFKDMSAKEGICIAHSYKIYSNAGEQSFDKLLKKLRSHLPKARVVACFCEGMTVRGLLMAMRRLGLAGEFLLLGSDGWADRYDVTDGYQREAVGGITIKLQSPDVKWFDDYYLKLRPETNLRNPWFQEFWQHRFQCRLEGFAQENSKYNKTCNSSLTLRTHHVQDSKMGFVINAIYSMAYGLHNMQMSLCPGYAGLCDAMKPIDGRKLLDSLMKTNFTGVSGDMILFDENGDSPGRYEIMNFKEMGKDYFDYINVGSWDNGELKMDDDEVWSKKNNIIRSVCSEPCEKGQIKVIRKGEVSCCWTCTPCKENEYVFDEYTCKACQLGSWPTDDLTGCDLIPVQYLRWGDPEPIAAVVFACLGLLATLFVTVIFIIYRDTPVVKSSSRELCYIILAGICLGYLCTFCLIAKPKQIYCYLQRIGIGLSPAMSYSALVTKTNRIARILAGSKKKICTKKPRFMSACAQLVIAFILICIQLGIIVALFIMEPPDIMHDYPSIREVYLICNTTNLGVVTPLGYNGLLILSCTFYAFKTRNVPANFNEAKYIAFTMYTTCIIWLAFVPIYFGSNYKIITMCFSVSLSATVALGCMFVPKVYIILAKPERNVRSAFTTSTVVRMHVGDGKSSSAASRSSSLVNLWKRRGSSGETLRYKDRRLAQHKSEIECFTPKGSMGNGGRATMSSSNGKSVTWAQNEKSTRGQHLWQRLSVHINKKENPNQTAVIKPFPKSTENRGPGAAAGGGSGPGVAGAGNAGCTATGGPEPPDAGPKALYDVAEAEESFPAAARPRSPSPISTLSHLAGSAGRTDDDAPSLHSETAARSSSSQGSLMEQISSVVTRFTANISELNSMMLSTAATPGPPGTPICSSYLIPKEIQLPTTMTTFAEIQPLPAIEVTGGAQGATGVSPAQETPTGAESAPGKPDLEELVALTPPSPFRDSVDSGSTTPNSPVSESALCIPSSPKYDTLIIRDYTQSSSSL
Experimental: Primary astrocyte cultures are prepared from cortices of newborn rats as described by Booher and Sensenbrenner (1972, Neurobiology 2(3):97-105). Briefly, Sprague-Dawley rat pups (2-4 d old) are decapitated and neocortices are dissected, disintegrated with a nylon filter (pore size 80 μm) and carefully triturated. […]
The increase of cytosolic calcium after stimulation with the mGluR5 agonist L-quisqualate is measured using a fluorometric imaging plate reader (FLIPR) and the Ca-Kit (both Molecular Devices). […] Subsequently, plates are transferred to FLIPR to detect calcium increase with the addition of L-quisqualate (100 nM) measured as relative fluorescence units (RFU). […]
(§1) The fluorescence signal increase after addition of agonist reflects the increase of cytosolic calcium. […] The mean of replicated temporal data (n=3-5) is calculated and used for graphical representation. For the evaluation of the pharmacology, the calcium changes in response to different concentrations of agonist or antagonist are determined using a maximum minus minimum (MaxMin) calculation.
All responses (RFU-values) are determined as percentage of control (=maximum response). EC50 and IC50 are calculated according the logistic equation using GraFit 5.0 (Erithacus Software, GB) or Prism 4.0 (GraphPad Software, USA).

[3] = target: T3, transmembrane allosteric modulatory sites of mGluR5 receptors in cortical membranes (Rattus norvegicus, UniProt P31424); assay: [3H]-MPEP binding assay in rat cortical membranes; conditions: [3H]-MPEP 5 nM, read-out: mGluR5_MPEP rCTX_IC50
T3 construct: from tissue; host or cells: rat brain cortex membranes (male Sprague-Dawley)
T3 sequence (P31424 21-1203): as above
Experimental: Male Sprague-Dawley rats (200-250 g) are decapitated and their brains are removed rapidly. The cortex is dissected and homogenized in 20 volumes of ice-cold 0.32 M sucrose using a glass-Teflon homogenizer. The homogenate is centrifuged at 1000×g for 10 minutes. The pellet is discarded and the supernatant centrifuged at 20,000×g for 20 minutes. The resulting pellet is re-suspended in 20 volumes of distilled water and centrifuged for 20 minutes at 8000×g. Then the supernatant and the buffy coat are centrifuged at 48,000×g for 20 minutes in the presence of 50 mM Tris-HCl, pH 8.0. The pellet is then re-suspended and centrifuged two to three more times at 48,000×g for 20 minutes in the presence of 50 mM Tris-HCl, pH 8.0. All centrifugation steps are carried out at 4° C. After resuspension in 5 volumes of 50 mM Tris-HCl, pH 8.0 the membrane suspension is frozen rapidly at −80° C. […]
Alternatively, assays are performed with [^3H]-MMPEP (2-(3-methoxyphenylethynyl)-6-methylpyridine hydrochloride) as radioligand. […] Following separation and rinse, the filters are placed into scintillation liquid (5 ml Ultima Gold, Perkin Elmer, Germany) and radioactivity retained on the filters is determined with a conventional liquid scintillation counter (Canberra Packard, Germany).

[4] = target: T1, metabotropic glutamate receptor (mGluR5); assay: Cytosolic calcium studies with stably transfected cells (FLIPR); format: cell-based; parameters: expressed in transfected cells; host or cells: CHO-K1 cells (IPTG-inducible expression); conditions: CHO-K1 cells with human mGluR5, agonist L-quisqualic acid; read-out: mGluR5_FLIPR_h_CHONAM_IC50
Experimental: Cytosolic Calcium Studies with Stably Transfected Cells
Chinese hamster ovary cells (CHO-K1 cells), stably transfected for inducible expression of a human metabotropic glutamate receptor mGluR5, are seeded into black clear bottom 96 well plates at a density of 35.000 cells per well. The standard growth medium used (Dulbecco's modified Eagle Medium, DMEM plus L-proline) contains the appropriate inducer isopropyl-β-D-thiogalactopyranosid (IPTG) to achieve optimal receptor expression. One day after seeding the growth medium is exchanged for reconstituted Ca-Kit (Molecular Devices, USA) and incubated for one hour. […] Agonistic compounds to the receptor elicit increases in cytosolic calcium which can be measured as increases in fluorescence signals by use of a fluorescence imaging plate reader (Molecular Devices).
as §1
All responses (RFU-values) are determined as percentage of control (=maximum response). […]

T1 sequence (P41594 21-1212): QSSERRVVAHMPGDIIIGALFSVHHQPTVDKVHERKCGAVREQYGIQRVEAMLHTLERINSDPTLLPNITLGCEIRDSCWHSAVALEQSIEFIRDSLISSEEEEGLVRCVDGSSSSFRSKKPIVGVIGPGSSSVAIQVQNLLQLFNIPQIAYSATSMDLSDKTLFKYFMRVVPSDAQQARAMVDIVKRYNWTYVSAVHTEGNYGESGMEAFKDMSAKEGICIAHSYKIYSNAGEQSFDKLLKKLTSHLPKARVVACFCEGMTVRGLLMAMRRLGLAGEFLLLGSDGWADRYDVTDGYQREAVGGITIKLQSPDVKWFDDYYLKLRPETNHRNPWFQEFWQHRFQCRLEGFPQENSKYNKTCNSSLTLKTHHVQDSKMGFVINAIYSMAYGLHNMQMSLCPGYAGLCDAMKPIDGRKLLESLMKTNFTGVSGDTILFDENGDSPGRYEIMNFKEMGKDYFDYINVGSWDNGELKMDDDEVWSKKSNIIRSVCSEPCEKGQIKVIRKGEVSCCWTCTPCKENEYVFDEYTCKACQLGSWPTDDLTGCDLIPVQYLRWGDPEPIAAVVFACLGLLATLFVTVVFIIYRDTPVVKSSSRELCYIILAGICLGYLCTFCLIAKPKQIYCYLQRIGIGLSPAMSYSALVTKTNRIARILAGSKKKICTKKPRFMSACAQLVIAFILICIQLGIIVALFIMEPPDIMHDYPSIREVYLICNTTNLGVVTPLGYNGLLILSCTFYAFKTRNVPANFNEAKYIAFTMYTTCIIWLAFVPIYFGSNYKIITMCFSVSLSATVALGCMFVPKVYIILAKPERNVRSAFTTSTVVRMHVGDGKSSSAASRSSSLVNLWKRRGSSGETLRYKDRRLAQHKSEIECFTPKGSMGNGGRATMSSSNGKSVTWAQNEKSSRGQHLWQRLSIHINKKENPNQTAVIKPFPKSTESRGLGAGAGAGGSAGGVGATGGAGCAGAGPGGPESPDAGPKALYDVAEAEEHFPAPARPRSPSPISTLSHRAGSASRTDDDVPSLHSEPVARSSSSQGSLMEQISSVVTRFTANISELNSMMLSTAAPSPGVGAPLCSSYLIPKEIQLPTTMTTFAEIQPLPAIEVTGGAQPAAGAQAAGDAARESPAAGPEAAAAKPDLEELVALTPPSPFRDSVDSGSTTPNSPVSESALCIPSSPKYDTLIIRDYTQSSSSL

| SMILES | activity as metabotropic glutamate receptor (mGluR5) modulator [1] | selectivity [1] | IC50 [2] [nM] | IC50 [3] [nM] | IC50 [4] [nM] |
| --- | --- | --- | --- | --- | --- |
| O=C(c1cc2ncc(Br)cn2n1)N1CCc2ccccc2C1 [M, (6-Bromo-pyrazolo[1,5-a]pyrimidin-2-yl)-(1,2,3,4-tetrahydro-isoquinolin-2-yl)-methanon] | only a limited activity | not selective | – | – | – |
| O=C(c1cc2ncc(Br)cn2n1)N1CC=C(c2ccccc2)CC1 [Example 1, (6-Bromo-pyrazolo[1,5-a]pyrimidin-2-yl)-(4-phenyl-3,6-dihydro-2H-pyridin-1-yl)-methanone] | – | – | 80 | 250 | 493 |
